This is an account of results in patent publication US20230192676A1, “Heterocyclic Amides as Kinase Inhibitors” (GLAXOSMITHKLINE INTELLECTUAL PROPERTY DEVELOPMENT LIMITED, priority 2017, published 2023).

This experiment relates to U937 cells. The experiment is described as follows: necroptosis assay in human monocytic leukemia U937 cells (Cell Titer-Glo ATP viability readout). To be noted: U-937, viability by cellular ATP (Cell Titer-Glo), values approximate, read-out: pIC50, inhibition of necrosis in U937 cells (converted). The class given is cell-based. The procedure: The efficacy of RIP1 inhibitors can be tested in […] in vitro using a human monocytic leukemia U937 in a necroptosis assay. As determined using the method described in S. He et al., Cell, 137(6):1100-1111 (2009) and International Patent Appln. No. PCT/IB2014/059004, now, International Patent Appln. Pub.
Viability was measured by quantitating cellular levels of ATP using the Cell Titer-Glo kit. All data are means±standard deviation of the mean.
On the technique in general: In ATP-based viability assays light output follows the ATP content of the culture.

`CNC(=O)c1cc(N2CC[C@H](C(=O)N3OCC[C@@H]3c3cc(F)cc(F)c3)[C@H](F)C2)ncn1` [Example 30, 6-((3S,4R)-4-((R)-3-(3,5-difluorophenyl)isoxazolidine-2-carbonyl)-3-fluoropiperidin-1-yl)-N-methylpyrimidine-4-carboxamide]: the IC50 is 1 to 100 nM.
As for `CNC(=O)c1cc(N2CC[C@@H](C(=O)N3OCC[C@@H]3c3cc(F)cc(F)c3)[C@@H](F)C2)ncn1` [Example 32, 6-((3R,4S)-4-((R)-3-(3,5-difluorophenyl)isoxazolidine-2-carbonyl)-3-fluoropiperidin-1-yl)-N-methylpyrimidine-4-carboxamide], the IC50 is 1 to 100 nM.
The figure for `CN(C)C(=O)c1cc(N2CC[C@H](C(=O)N3OCC[C@H]3c3cc(F)cc(F)c3)[C@H](F)C2)ncn1` [Example 35, 6-((3S,4R)-4-((S)-3-(3,5-difluorophenyl)isoxazolidine-2-carbonyl)-3-fluoropiperidin-1-yl)-N,N-dimethylpyrimidine-4-carboxamide] is 1 to 100 nM; for `CN(C)C(=O)c1cc(N2CC[C@H](C(=O)N3OCC[C@@H]3c3cc(F)cc(F)c3)[C@H](F)C2)ncn1` [Example 34, 6-((3S,4R)-4-((R)-3-(3,5-difluorophenyl)isoxazolidine-2-carbonyl)-3-fluoropiperidin-1-yl)-N,N-dimethylpyrimidine-4-carboxamide] it is 1 to 100 nM; for `C[S@+]([O-])c1cc(N2CC[C@@H](C(=O)N3OCC[C@@H]3c3cc(F)cc(F)c3)[C@@H](F)C2)ncn1` [Example 46, ((R)-3-(3,5-difluorophenyl)isoxazolidin-2-yl)((3R,4S)-3-fluoro-1-(6-((S)-methylsulfinyl)pyrimidin-4-yl)piperidin-4-yl)methanone] it is 1 to 100 nM.
As for `NC(=O)c1cc(N2CC[C@H](C(=O)N3OCC[C@@H]3c3cc(F)cc(F)c3)[C@H](F)C2)ncn1` [Example 26, 6-((3S,4R)-4-((R)-3-(3,5-difluorophenyl)isoxazolidine-2-carbonyl)-3-fluoropiperidin-1-yl)pyrimidine-4-carboxamide], the IC50 was 1 to 100 nM.
The figure for `CNC(=O)c1cc(N2CCC(C(=O)N3OCC[C@H]3c3cc(F)cc(F)c3)CC2)ncn1` [Example 9, (S)-6-(4-(3-(3,5-difluorophenyl)isoxazolidine-2-carbonyl)piperidin-1-yl)-N-methylpyrimidine-4-carboxamide] is 1 to 100 nM.
With `N#Cc1cc(N2CCC(C(=O)N3OCC[C@H]3c3cc(F)cc(F)c3)CC2)ncn1` [Example 8, (S)-6-(4-(3-(3,5-difluorophenyl)isoxazolidine-2-carbonyl)piperidin-1-yl)pyrimidine-4-carbonitrile], the IC50 is 1 to 100 nM.
The result for `NC(=O)c1cc(N2CCC(C(=O)N3OCC[C@H]3c3cc(F)cc(F)c3)CC2)ncn1` [Example 4, (S)-6-(4-(3-(3,5-difluorophenyl)isoxazolidine-2-carbonyl)piperidin-1-yl)pyrimidine-4-carboxamide] reads 1 to 100 nM; that for `Cc1nnc(N2CC[C@@H](C(=O)N3OCC[C@@H]3c3cc(F)cc(F)c3)[C@@H](F)C2)o1` [Example 18, ((R)-3-(3,5-difluorophenyl)isoxazolidin-2-yl)((3R,4S)-3-fluoro-1-(5-methyl-1,3,4-oxadiazol-2-yl)piperidin-4-yl)methanone], 1 to 100 nM; that for `Cc1nnc(N2CCC(C(=O)N3OCC[C@H]3c3cc(F)cc(F)c3)CC2)o1` [Example 5, (S)-(3-(3,5-difluorophenyl)isoxazolidin-2-yl)(1-(5-methyl-1,3,4-oxadiazol-2-yl)piperidin-4-yl)methanone], 1 to 100 nM.
The result for `C[S@@+]([O-])c1cc(N2CC[C@H](C(=O)N3OCC[C@@H]3c3cc(F)cc(F)c3)[C@H](F)C2)ncn1` [Example 44, ((R)-3-(3,5-difluorophenyl)isoxazolidin-2-yl)((3S,4R)-3-fluoro-1-(6-((R)-methylsulfinyl)pyrimidin-4-yl)piperidin-4-yl)methanone] reads 1 to 100 nM.
With `Cc1nnc(N2CC[C@H](C(=O)N3OCC[C@@H]3c3cc(F)cc(F)c3)[C@H](F)C2)o1` [Example 16, ((R)-3-(3,5-difluorophenyl)isoxazolidin-2-yl)((3S,4R)-3-fluoro-1-(5-methyl-1,3,4-oxadiazol-2-yl)piperidin-4-yl)methanone], the IC50 was 1 to 100 nM.
The figure for `CC(=O)N1CCC(C(=O)N2OCC[C@H]2c2cc(F)cc(F)c2)CC1` [Example 2, (S)-1-(4-(3-(3,5-difluorophenyl)isoxazolidine-2-carbonyl)piperidin-1-yl)ethan-1-one] is 1 to 100 nM.
As to `CN(C)C(=O)c1cc(N2CCC(C(=O)N3OCC[C@H]3c3cc(F)cc(F)c3)CC2)ncn1` [Example 10, (S)-6-(4-(3-(3,5-difluorophenyl)isoxazolidine-2-carbonyl)piperidin-1-yl)-N,N-dimethylpyrimidine-4-carboxamide], the IC50 is 1 to 100 nM.
On to `O=C([C@H]1CCN(c2nnco2)C[C@H]1F)N1OCC[C@@H]1c1cc(F)cc(F)c1` [Example 22, ((R)-3-(3,5-difluorophenyl)isoxazolidin-2-yl)((3S,4R)-3-fluoro-1-(1,3,4-oxadiazol-2-yl)piperidin-4-yl)methanone], for which the IC50 is 1 to 100 nM.
